The values below are quoted from earlier work in US20040204435A1, “Alternating treatment with topoisomerase I and topoisomerase II inhibitors” (priority 2003, published 2004).

The subject of data set [1] is human tumor xenografts.
The conditions of data set [2]: for clinical effectiveness: cancer patients.
Experiment in data set [3]: not given
This is another data set of the same source.

The conditions of data set [4]: mouse plasma.
For data set [5] the following is noted: humans, plasma.
The conditions of data set [6]: carboxylate versus CPT (lactone).

The structures appear in SMILES notation.

Regarding `CCc1c2c(nc3ccc(OC(=O)N4CCC(N5CCCCC5)CC4)cc13)-c1cc3c(c(=O)n1C2)COC(=O)[C@]3(O)CC` [Camptosar, irinotecan], the solubility in water result is listed as “water soluble”.
Consider `CC[C@@]1(O)C(=O)OCc2c1cc1n(c2=O)Cc2cc3ccccc3nc2-1` [CPT, Camptothecin], for which, in data set [1], the “effect on human tumor xenografts in nude mice” value (shortened to “effect … in nude mice”) is recorded as “completely eradicate”. In addition, the clinical effectiveness entry in data set [2] was “much less effective in cancer patients than in mice”. In addition, the dose-limiting toxicity result in data set [2] (clinical trials (9NC: phase I-II)) was “diarrhea”.
`CC[C@@](O)(C(=O)[O-])c1cc2n(c(=O)c1CO)Cc1cc3ccccc3nc1-2.[Na+]` [sodium salt of CPT]: the toxicities entry in data set [3] (in vivo) was “myelosuppression, diarrhea and cystitis”. Besides, the clinical benefit result in data set [3] (phase I and II trials 1970-1972) is “no clinical benefit”.
As for `CC[C@@]1(O)C(=O)OCc2c1cc1n(c2=O)Cc2cc3c(CN(C)C)c(O)ccc3nc2-1` [Topotecan], the solubility in water result is recorded as “water soluble”.
With `CC[C@@]1(O)C(=O)OCc2c1cc1n(c2=O)Cc2cc3c([N+](=O)[O-])cccc3nc2-1` [9NC, 9-nitrocamptothecin], in data set [4], the “administered dose circulating as active lactone form” value is “Up to 50%”. For the same molecule, the “effect … in nude mice” value in data set [1] was “completely eradicate”. Besides, the clinical effectiveness entry in data set [2] is “less effective against human pancreas tumors in humans than against human cancer xenografts in nude mice”. Besides, the “drug circulating as lactone” value in data set [5] was 2-5%.
As to `CC[C@@]1(O)C(=O)OCc2c1cc1n(c2=O)Cc2cc3ccccc3nc2-1` [CPT lactone], the solubility in water result is reported as “insoluble”.
Take `CCC(O)(C(=O)O)c1cc2n(c(=O)c1CO)Cc1cc3ccccc3nc1-2` (stereo not shown) [CPT carboxylate]: the solubility in water result is given as “soluble”. Besides, the “anticancer activity relative to CPT” value in data set [6] is on record as about 10%.
Consider `CC[C@@]1(O)C(=O)OCc2c1cc1n(c2=O)Cc2cc3c(N)cccc3nc2-1` [9-aminocamptothecin], for which the “effect … in nude mice” value in data set [1] was “completely eradicate”. In addition, in data set [2], the clinical effectiveness entry is given as “insufficiently effective”.
